The text below walks through data of ChEMBL document CHEMBL3044926, “Controlling powdery mildew on cucurbit rootstock seedlings in the greenhouse with fungicides and biofungicides” (Crop Prot, 2012).

Data set [1] concerns Lagenaria siceraria. In words: Phytotoxicity against Lagenaria siceraria 'Emphasis' rootstock seedlings. Format: organism-based. Conditions: in vivo.
Data set [2] has as its system Cucurbita maxima x Cucurbita moschata. The data set can be described thus: Phytotoxicity against inter-specific squash hybrid Cucurbita moschata x Cucurbita maxima (Strong tosa) rootstock seedlings. Conditions: in vivo. Format: organism-based.
Data set [3] shares this test system. The data set can be described thus: Phytotoxicity against inter-specific squash hybrid Cucurbita moschata x Cucurbita maxima (Strong tosa) rootstock seedlings assessed as stunting. Conditions: in vivo. Format: organism-based.
Data set [4] relates to Lagenaria siceraria. In words: Phytotoxicity against Lagenaria siceraria 'Emphasis' rootstock seedlings assessed as stunting. Conditions: in vivo. Format: organism-based.
Data set [5] has as its system Podosphaera xanthii. In words: Fungicidal activity against Podosphaera xanthii (powdery mildew) inoculated in Lagenaria siceraria Emphasis continuously after first drug application assessed as disease severity on upper surface areas of cotyledons at 40% in 0.37 ml/L applied thrice at 5-days intervals measured 5 days after third application under green house conditions (water Rvb = 36.8%). Format: functional.

In data set [6] the test system is Podosphaera xanthii. The data set can be described thus: Fungicidal activity against Podosphaera xanthii (powdery mildew) inoculated in inter-specific squash hybrid Strong tosa (Cucurbita moschata x Cucurbita maxima) rootstock seedlings for 7 days prior to drug application assessed as disease severity on upper surface areas of cotyledonsat 40% in 0.37 ml/L applied once measured 7 days post-drug dose under greenhouse conditions (water Rvb = 10.2%). Format: functional.

For data set [7], the system named is Podosphaera xanthii. The data set can be described thus: Fungicidal activity against Podosphaera xanthii (powdery mildew) inoculated in squash (Cucurbita pepo) rootstock seedlings continuously after first drug application assessed as incidence of disease symptoms on hypocotyls or upper or lower sides of cotyledons at 40% in 0.37 ml/L applied thrice at 5-days intervals measured 5 days after third application under green house conditions (water Rvb = …. Format: functional.

The test system of data set [8] is Cucurbita maxima x Cucurbita moschata. The data set can be described thus: Phytotoxicity against inter-specific squash hybrid Cucurbita moschata x Cucurbita maxima (Strong tosa) rootstock seedlings assessed as stunted growth. Format: organism-based. Conditions: in vivo.
Data set [9] has as its system Lagenaria siceraria. The data set can be described thus: Phytotoxicity against Lagenaria siceraria 'Emphasis' rootstock seedlings assessed as stunted growth. Format: organism-based. Conditions: in vivo.
Data set [10] concerns Podosphaera xanthii. The data set can be described thus: Fungicidal activity against Podosphaera xanthii (powdery mildew) inoculated in Lagenaria siceraria Emphasis continuously after first drug application assessed as disease severity on lower surface areas of cotyledons at 40% in 0.37 ml/L applied thrice at 5-days intervals measured 5 days after third application under green house conditions (water Rvb = 13.9%). Format: functional.

Data set [11] relates to Podosphaera xanthii. In words: Fungicidal activity against Podosphaera xanthii (powdery mildew) inoculated in inter-specific squash hybrid Strong tosa (Cucurbita moschata x Cucurbita maxima) rootstock seedlings for 7 days prior to drug application assessed as disease severity on lower surface areas of cotyledonsat 40% in 0.37 ml/L applied once measured 7 days post-drug dose under greenhouse conditions (water Rvb = 5.1%). Format: functional.

In data set [12] the test system is Podosphaera xanthii. The data set can be described thus: Fungicidal activity against Podosphaera xanthii (powdery mildew) inoculated in squash (Cucurbita pepo) rootstock seedlings continuously after first drug application assessed as disease severity at 40% in 0.37 ml/L applied thrice at 5-days intervals measured 5 days after third application under green house conditions (water Rvb = 3.9%). Format: functional.

The test system of data set [13] is Podosphaera xanthii. The data set can be described thus: Fungicidal activity against Podosphaera xanthii (powdery mildew) inoculated in Lagenaria siceraria Emphasis continuously after first drug application assessed as disease severity at 40% in 0.37 ml/L applied thrice at 5-days intervals measured 5 days after third application under green house conditions (water Rvb = 53.5%). Format: functional.

Data set [14] deals with Podosphaera xanthii. The data set can be described thus: Fungicidal activity against Podosphaera xanthii (powdery mildew) inoculated in inter-specific squash hybrid Strong tosa (Cucurbita moschata x Cucurbita maxima) rootstock seedlings for 7 days prior to drug application assessed as incidence of disease symptoms on hypocotyls or upper or lower sides of cotyledons at 40% in 0.37 ml/L applied once measured 7 days post-drug dose under greenhouse …. Format: functional.

The test system of data set [15] is Podosphaera xanthii. In words: Fungicidal activity against Podosphaera xanthii (powdery mildew) inoculated in inter-specific squash hybrid Strong tosa (Cucurbita moschata x Cucurbita maxima) rootstock seedlings for 7 days prior to drug application assessed as disease severity at 40% in 0.37 ml/L applied once measured 7 days post-drug dose under greenhouse conditions (water Rvb = 17.5%). Format: functional.

The test system of data set [16] is Podosphaera xanthii. In words: Fungicidal activity against Podosphaera xanthii (powdery mildew) inoculated in Lagenaria siceraria Emphasis continuously after first drug application assessed as incidence of disease symptoms on hypocotyls or upper or lower sides of cotyledons at 40% in 0.37 ml/L applied thrice at 5-days intervals measured 5 days after third application under green house conditions (water Rvb = 100%). Format: functional.

Data set [17] has as its system Podosphaera xanthii. In words: Fungicidal activity against Podosphaera xanthii (powdery mildew) inoculated in squash (Cucurbita pepo) rootstock seedlings continuously after first drug application assessed as incidence of disease symptoms on hypocotyls or upper or lower sides of cotyledons at 46.1% in 1.50 g/L applied thrice at …. Format: functional, organism-based.
For data set [18], the system named is Podosphaera xanthii. In words: Fungicidal activity against Podosphaera xanthii (powdery mildew) inoculated in squash (Cucurbita pepo) rootstock seedlings continuously after first drug application assessed as disease severity at 46.1% in 1.50 g/L applied thrice at 5-days intervals measured 5 days after third application under green house conditions (water Rvb = 3.9%). Format: functional, organism-based.

Data set [19] relates to Podosphaera xanthii. In words: Fungicidal activity against Podosphaera xanthii (powdery mildew) inoculated in inter-specific squash hybrid Strong tosa (Cucurbita moschata x Cucurbita maxima) rootstock seedlings for 7 days prior to drug application assessed as disease severity at 46.1% in 1.50 g/L applied once measured 7 days post-drug dose under greenhouse conditions (water Rvb = 17.5%). Format: functional, organism-based.

Data set [20] concerns Podosphaera xanthii. In words: Fungicidal activity against Podosphaera xanthii (powdery mildew) inoculated in inter-specific squash hybrid Strong tosa (Cucurbita moschata x Cucurbita maxima) rootstock seedlings for 7 days prior to drug application assessed as incidence of disease symptoms on hypocotyls or upper or lower sides of …. Format: functional, organism-based.
For data set [21], the system named is Podosphaera xanthii. In words: Fungicidal activity against Podosphaera xanthii (powdery mildew) inoculated in inter-specific squash hybrid Strong tosa (Cucurbita moschata x Cucurbita maxima) rootstock seedlings for 7 days prior to drug application assessed as disease severity on lower surface areas of cotyledonsat 46.1% in 1.50 g/L applied once measured 7 days post-drug dose under greenhouse conditions (water Rvb = 5.1%). Format: functional, organism-based.

For data set [22], the system named is Podosphaera xanthii. In words: Fungicidal activity against Podosphaera xanthii (powdery mildew) inoculated in inter-specific squash hybrid Strong tosa (Cucurbita moschata x Cucurbita maxima) rootstock seedlings for 7 days prior to drug application assessed as disease severity on upper surface areas of cotyledonsat 46.1% in 1.50 g/L applied once measured 7 days post-drug dose under greenhouse conditions (water Rvb = 10.2%). Format: functional, organism-based.

`OO` [HYDROGEN PEROXIDE]: the Activity entry (in the data set with Lagenaria siceraria [1]; in [2]; in [3]; in the data set on Lagenaria siceraria [4]) was “Non-toxic” each time.
Consider `CCCCC(C#N)(Cn1cncn1)c1ccc(Cl)cc1` (stereo not given) [MYCLOBUTANIL], for which the Activity in the data set on Podosphaera xanthii [5] was determined as 3.1%; in the data set on Podosphaera xanthii [6], 0.08%; with Podosphaera xanthii [7] it was 0%; in the data set on Podosphaera xanthii [10] it was 0.9%; with Podosphaera xanthii [11] it was 0.02%; with Podosphaera xanthii [12], 0%. For the same compound, the Activity was found to be 4.1% in the data set with Podosphaera xanthii [13], 2.3% in the data set with Podosphaera xanthii [14], 0.1% with Podosphaera xanthii [15] and 65.1% with Podosphaera xanthii [16]. In addition, the “inhibition (INH)” value (in data set [8]; in the data set with Lagenaria siceraria [9]) was 33% in each case.
With `O=C([O-])O.[K+]` [POTASSIUM BICARBONATE], the Activity entry (with Lagenaria siceraria [1]; in [2]; in [3]; in the data set with Lagenaria siceraria [4]) was “Non-toxic” in each case.
On to COPPER HYDROXIDE [listing 1 of 2 here], for which the Activity entry (with Lagenaria siceraria [1]; in data set [2]; in data set [3]; with Lagenaria siceraria [4]) was “Non-toxic” in each case.
Consider COPPER HYDROXIDE [listing 2 of 2 here], for which the Activity in the data set on Podosphaera xanthii [17] is 9.2%; with Podosphaera xanthii [18], 0.21%; in the data set with Podosphaera xanthii [19] it was 13.6%; in the data set with Podosphaera xanthii [20], 97.7%; in the data set on Podosphaera xanthii [21], 4.3%; in the data set on Podosphaera xanthii [22], 8.2%.
